Measured values as given in the NIST ThermoML archive (doi:10.1016/j.jct.2006.05.001).
Numbers after ± are expanded uncertainties.

Columns and labels:
[1] = Liquid; for mass density: 101.33 kPa; for Normal boiling temperature: Distillation
[2] = refractive index (Na D-line) (dimensionless); details: 293.15 K; 101.33 kPa; Liquid; Standard Abbe refractometry

mass density ([1]; 293.15 K) [kg/m3]	Normal boiling temperature [1] [°C]	refractive index [2]	mass density ([1]; 297.15 K) [kg/m3]	mass density ([1]; 298.15 K) [kg/m3]	Structure (SMILES)
829.5 ± 0.94	230.6 ± 0.5	1.4373 ± 0.0008	–	–	CCCCCCCCCCO [decan-1-ol]
828.5 ± 1.7	215.2 ± 0.5	1.4335 ± 0.0008	–	–	CCCCCCCCCO [nonan-1-ol]

Continued, compound first:

Structure (SMILES)	mass density ([1]; 293.15 K) [kg/m3]	Normal boiling temperature [1] [°C]	refractive index [2]	mass density ([1]; 297.15 K) [kg/m3]	mass density ([1]; 298.15 K) [kg/m3]
CCCCCCCCCCCCO [dodecan-1-ol]	–	259.4 ± 0.5	–	830.8 ± 1.5	–
CCCCCCCCO [octan-1-ol]	–	195 ± 0.5	1.4292 ± 0.0008	–	826.25 ± 0.95
CCC(=O)O [propanoic acid]	–	141.4 ± 0.5	1.3808 ± 0.0008	–	988.04 ± 0.53
